What was measured:
U2OS [1] = assay: drug sensitivity score (DSS) for viability; higher = more toxic; extreme values may be limits of the assay; settings: 72 h
Calu-3 [2] = assay: as above; settings: 72 h
Caco-2 [3] = assay: as above; settings: 72 h
HepG2 [4] = assay: as above; settings: 72 h
Vero E6 [5] = assay: as above; settings: 72 h
U2OS [6] = assay: relative viability EC50 (midpoint between 100% and the lowest measured viability); higher = less toxic; settings: 72 h
Calu-3 [7] = assay: as above; settings: 72 h
Caco-2 [8] = assay: as above; settings: 72 h
HepG2 [9] = assay: as above; settings: 72 h
Vero E6 [10] = assay: as above; settings: 72 h
U2OS [11] = assay: cell viability relative to DMSO; higher = less toxic; settings: 72 h
Calu-3 [12] = assay: as above; settings: 72 h
Caco-2 [13] = assay: as above; settings: 72 h
HepG2 [14] = assay: as above; settings: 72 h
Vero E6 [15] = assay: as above; settings: 72 h
[16] = tested on: A549-ACE2 infected with SARS-CoV-2; assay: SARS-CoV-2 infection rate relative to DMSO; higher = more infection; settings: 24 h
[17] = tested on: A549-ACE2 infected with SARS-CoV-2; assay: cell count relative to DMSO; higher = less toxic; settings: 24 h
[18] = tested on: A549-ACE2 infected with SARS-CoV-2; assay: morphology score (similarity to uninfected cells); higher = more like uninfected cells; settings: 24 h
A549-ACE2 = assay: drug-induced phospholipidosis relative to tamoxifen; higher = more phospholipidosis

Nc1ncnc2c1ncn2[C@@H]1O[C@H](COP(=O)(O)O)[C@@H](O)[C@H]1O [adenosine-phosphate]
Settings | drug sensitivity score | relative viability EC50 [µM]
Caco-2 [3] | 0 | –
Caco-2 [8] | – | > 10
Calu-3 [2] | 0 | –
Calu-3 [7] | – | > 10
HepG2 [4] | 0 | –
HepG2 [9] | – | > 10
U2OS [1] | 0 | –
U2OS [6] | – | > 10
Vero E6 [5] | 0 | –
Vero E6 [10] | – | > 10

cell viability [%]
Settings | Caco-2 [13] | Calu-3 [12] | HepG2 [14] | U2OS [11] | Vero E6 [15]
1 nM | 114 | 89.1 | 90.2 | 97.9 | 101
10 nM | 98 | 93.5 | 94.5 | 102 | 108
100 nM | 86.4 | 93.6 | 101 | 94.6 | 110
1000 nM | 113 | 101 | 85.6 | 104 | 91
10000 nM | 92.8 | 89.6 | 96 | 107 | 102

COc1cccc(-n2nc(C(=O)O)cc2-c2ccc(C3CCCCC3)c(Cl)c2)c1 [TC-LPA5-4]
Settings | drug sensitivity score | relative viability EC50 [µM]
Caco-2 [3] | 0 | –
Caco-2 [8] | – | > 10
Calu-3 [2] | 0 | –
Calu-3 [7] | – | > 10
HepG2 [4] | 0 | –
HepG2 [9] | – | > 10
U2OS [1] | 0 | –
U2OS [6] | – | > 10
Vero E6 [5] | 0 | –
Vero E6 [10] | – | > 10

cell viability [%]
Settings | Caco-2 [13] | Calu-3 [12] | HepG2 [14] | U2OS [11] | Vero E6 [15]
1 nM | 87.4 | 97.4 | 111 | 100 | 102
10 nM | 93.6 | 94.5 | 92.6 | 96.4 | 104
100 nM | 96.4 | 101 | 101 | 97.8 | 103
1000 nM | 97.7 | 95.8 | 104 | 94.9 | 99.6
10000 nM | 101 | 108 | 102 | 94.9 | 96

CC(C)NC(=O)c1ccc(C#Cc2ccncc2)cn1
Settings | drug sensitivity score | relative viability EC50 [µM]
Caco-2 [3] | 0 | –
Caco-2 [8] | – | > 10
Calu-3 [2] | 0 | –
Calu-3 [7] | – | > 10
HepG2 [4] | 0 | –
HepG2 [9] | – | > 10
U2OS [1] | 0 | –
U2OS [6] | – | > 10
Vero E6 [5] | 0 | –
Vero E6 [10] | – | > 10

cell viability [%]
Settings | Caco-2 [13] | Calu-3 [12] | HepG2 [14] | U2OS [11] | Vero E6 [15]
1 nM | 101 | 90.1 | 104 | 95.1 | 100
10 nM | 90.3 | 95.8 | 102 | 98.3 | 96.1
100 nM | 99.1 | 99.9 | 98.1 | 97.1 | 92.2
1000 nM | 92.4 | 99 | 96.7 | 104 | 94.5
10000 nM | 95.4 | 114 | 98.1 | 102 | 101

CCNC(=O)c1n[nH]c(-c2cc(Cl)c(O)cc2O)c1-c1ccc(OC)cc1
Settings | drug sensitivity score | relative viability EC50 [µM]
Caco-2 [3] | 6.2 | –
Caco-2 [8] | – | 1.58
Calu-3 [2] | 5.6 | –
Calu-3 [7] | – | 1.61
HepG2 [4] | 13.3 | –
HepG2 [9] | – | 0.714
U2OS [1] | 8.6 | –
U2OS [6] | – | 1.64
Vero E6 [5] | 6.5 | –
Vero E6 [10] | – | 1.29

cell viability [%]
Settings | Caco-2 [13] | Calu-3 [12] | HepG2 [14] | U2OS [11] | Vero E6 [15]
1 nM | 95.3 | 99.8 | 104 | 93.7 | 100
10 nM | 101 | 88.5 | 94.2 | 99.1 | 95.7
100 nM | 94.4 | 96.1 | 105 | 99.5 | 100
1000 nM | 83.8 | 85.8 | 31.3 | 78.7 | 78.5
10000 nM | 32.7 | 39.2 | 2 | 4.7 | 37.8

Fc1ccccc1-c1nc2ccn(Cc3ccc(-c4ccc(C(F)(F)F)cc4C(F)(F)F)nn3)cc-2n1 [tegobuvir]
Settings | drug sensitivity score | relative viability EC50 [µM]
Caco-2 [3] | 0 | –
Caco-2 [8] | – | > 10
Calu-3 [2] | 0 | –
Calu-3 [7] | – | > 10
HepG2 [4] | 1.6 | –
HepG2 [9] | – | > 10
U2OS [1] | 0 | –
U2OS [6] | – | > 10
Vero E6 [5] | 0 | –
Vero E6 [10] | – | > 10

cell viability [%]
Settings | Caco-2 [13] | Calu-3 [12] | HepG2 [14] | U2OS [11] | Vero E6 [15]
1 nM | 101 | 98.2 | 103 | 101 | 103
10 nM | 97.8 | 93.9 | 97.3 | 102 | 101
100 nM | 95 | 104 | 103 | 97.2 | 100
1000 nM | 99.2 | 90.3 | 87.6 | 102 | 96.1
10000 nM | 97.1 | 104 | 81.6 | 100 | 98.9

Nc1nccc(Oc2ccc(NC(=O)c3c[nH]cc(-c4ccc(F)cc4)c3=O)cc2F)c1Cl [metatinib]
Settings | drug sensitivity score | relative viability EC50 [µM]
Caco-2 [3] | 0.4 | –
Caco-2 [8] | – | > 10
Calu-3 [2] | 0 | –
Calu-3 [7] | – | > 10
HepG2 [4] | 5.7 | –
HepG2 [9] | – | 1.61
U2OS [1] | 0 | –
U2OS [6] | – | > 10

Settings | SARS-CoV-2 infection rate, [16] [%] | cell count, [17] [%] | cell viability, Caco-2 [13] [%] | cell viability, Calu-3 [12] [%] | cell viability, HepG2 [14] [%] | cell viability, U2OS [11] [%] | morphology score, [18]
1 nM | – | – | 100 | 91.4 | 104 | 96.2 | –
10 nM | – | – | 104 | 96.5 | 106 | 102 | –
100 nM | – | – | 92.6 | 95.5 | 101 | 100 | –
0.3 µM | 101 | 95 | – | – | – | – | -0.24
1000 nM | – | – | 104 | 95.3 | 85.6 | 99.2 | –
3 µM | 91 | 102 | – | – | – | – | -0.08
10 µM | 97 | 106 | – | – | – | – | 0.16
10000 nM | – | – | 80 | 96.3 | 37.7 | 94.9 | –
30 µM | 60 | 60 | – | – | – | – | 0.34

drug-induced phospholipidosis [%], A549-ACE2
Settings | 0.3 µM | 0.833333 µM | 3.33333 µM | 6.66667 µM | 10 µM | 30 µM
24 h | 2.65 | 1.25 | 4.8 | 18.8 | 23.4 | 32.3
48 h | 4.96 | -2.22 | -0.29 | 7.93 | 12.6 | 20.2
72 h | 2.59 | -0.924 | 2.59 | 8.07 | 10.8 | 22.5

NC(=O)c1cc([N+](=O)[O-])cc([N+](=O)[O-])c1 [nitromide]
Settings | drug sensitivity score | relative viability EC50 [µM]
Caco-2 [3] | 0 | –
Caco-2 [8] | – | > 10
Calu-3 [2] | 0 | –
Calu-3 [7] | – | > 10
HepG2 [4] | 0 | –
HepG2 [9] | – | > 10
U2OS [1] | 0 | –
U2OS [6] | – | > 10
Vero E6 [5] | 0 | –
Vero E6 [10] | – | > 10

cell viability [%]
Settings | Caco-2 [13] | Calu-3 [12] | HepG2 [14] | U2OS [11] | Vero E6 [15]
1 nM | 97.5 | 93.9 | 112 | 100 | 98.3
10 nM | 95.2 | 101 | 95.1 | 98.4 | 96.6
100 nM | 95.8 | 95 | 99.7 | 101 | 93.6
1000 nM | 104 | 105 | 119 | 96.5 | 94.5
10000 nM | 104 | 112 | 104 | 107 | 108

— the supplement of paper PMC13380429
